Our source for the IC50 and EC50 values is patent US12312359B2 (Vitae Pharmaceuticals, LLC, priority 2016, dated 2025).

A value given as a limit tells only on which side of the number the result lay.

For experiment [1], the target named is T1, biotinylated wild-type menin and MLL-AF9 fusion protein (menin/MLL binding) (Homo sapiens, UniProt O00255).
T1 construct: made in house; host or cells: menin: E. coli; MLL-AF9-FLAG: HEK293 cells, used as cleared lysate
T1 sequence (O00255 1-610): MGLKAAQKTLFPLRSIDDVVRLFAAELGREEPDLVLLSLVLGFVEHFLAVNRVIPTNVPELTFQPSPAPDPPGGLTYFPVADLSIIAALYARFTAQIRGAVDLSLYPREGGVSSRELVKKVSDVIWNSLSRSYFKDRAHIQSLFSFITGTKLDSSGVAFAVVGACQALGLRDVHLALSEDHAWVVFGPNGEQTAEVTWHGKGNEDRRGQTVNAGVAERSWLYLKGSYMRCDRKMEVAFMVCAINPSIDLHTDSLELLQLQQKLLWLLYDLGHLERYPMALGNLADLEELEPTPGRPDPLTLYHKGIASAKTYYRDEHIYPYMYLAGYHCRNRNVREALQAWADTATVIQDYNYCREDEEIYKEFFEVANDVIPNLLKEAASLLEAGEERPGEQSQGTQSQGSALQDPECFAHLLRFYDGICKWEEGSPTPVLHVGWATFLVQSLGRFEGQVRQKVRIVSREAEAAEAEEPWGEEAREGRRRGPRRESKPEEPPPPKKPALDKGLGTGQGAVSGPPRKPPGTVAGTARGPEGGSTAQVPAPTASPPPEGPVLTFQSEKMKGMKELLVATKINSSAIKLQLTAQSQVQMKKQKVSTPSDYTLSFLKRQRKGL
The experiment can be described thus: Assay 1: menin/MLL binding AlphaLISA assay, wild-type menin. The conditions noted are these: Table 30; column head does not say wild-type or mutated menin. The procedure, abridged: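 Compound was preincubated 30 min at room temperature with biotinylated menin (5 nM) and MLL-AF9-FLAG lysate from HEK293 cells, pH 7.4 buffer with 5% DMSO and DTT. Bead-based Alpha signal after 60 min with streptavidin donor and anti-FLAG acceptor beads; four-parameter logistic fit gave IC50.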

For experiment [2], the system named is human acute monocytic leukemia cell line MV-4-11. The experiment can be described thus: Assay 2: cell proliferation assay (ATP quantitation, CellTiter-Glo), MV-4-11. It counts as cell-based. The conditions noted are these: MV-4-11 cells. Summed up: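 MV-4-11 cells, 1.67×10^4 per well in medium with 10% FBS, were exposed to compound for 72 h at 37° C., 5% CO2; HL-60 cells served as toxicity control. Proliferation read as ATP content by CellTiter-Glo luminescence.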

The IC50 is the midpoint of a concentration-inhibition curve. A lower IC50 goes with inhibition by little substance. For orientation: EC50 means the midpoint of the concentration-response curve. Higher therefore signals weaker potency. As to `CC(O)c1ccccc1-c1cc(F)ccc1Oc1cncnc1N1CCC2(CCN(Cc3ccc4[nH]c(=O)[nH]c4c3)C2)C1` (centres unmarked) [Example 60, 5-((7-(5-((5-fluoro-2′-(1-hydroxyethyl)-[1,1′-biphenyl]-2-yl)oxy)pyrimidin-4-yl)-2,7-diazaspiro[4.4]nonan-2-yl)methyl)-1H-benzo[d]imidazol-2(3H)-one], the IC50 in experiment [1] was < 100 nM. Further, the EC50 in experiment [2] (Homo sapiens, MV4-11, 72 h) was in the range of 100 to 1000 nM.
In the same order, the values of `Cn1c(-c2cc(F)ccc2Oc2cncnc2N2CCC3(CCN(Cc4ccc5[nH]c(=O)[nH]c5c4)C3)C2)c(C2CC2)ccc1=O` (single isomer, unassigned) [Example 29A, 5-((7-(5-(2-(3-cyclopropyl-1-methyl-6-oxo-1,6-dihydropyridin-2-yl)-4-fluorophenoxy)pyrimidin-4-yl)-2,7-diazaspiro[4.4]nonan-2-yl)methyl)-1,3-dihydro-2H-benzo[d]imidazol-2-one] are < 100 nM and < 100 nM.
For `CC1CCC(C)N1C(=O)c1cc(F)ccc1Oc1cncnc1N1CCC2(CCN(Cc3ccc4[nH]c(=O)[nH]c4c3)C2)C1` (centres unmarked) [Example 153, 5-((7-(5-(2-(2,5-dimethylpyrrolidine-1-carbonyl)-4-fluorophenoxy)pyrimidin-4-yl)-2,7-diazaspiro[4.4]nonan-2-yl)methyl)-1,3-dihydro-2H-benzo[d]imidazol-2-one], in that order: < 100 nM and 100 to 1000 nM.
In the case of `CC(C)N(C)C(=O)c1cc(F)ccc1Oc1cncnc1N1CCC2(CCN(Cc3ccc4[nH]c(=O)[nH]c4c3)C2)C1` (single isomer, unassigned) [Example 183B, 5-fluoro-N-isopropyl-N-methyl-2-((4-(7-((2-oxo-2,3-dihydro-1H-benzo[d]imidazol-5-yl)methyl)-2,7-diazaspiro[4.4]nonan-2-yl)pyrimidin-5-yl)oxy)benzamide], the IC50 in experiment [1] was < 100 nM. For the same compound, the EC50 in experiment [2] (72 h) was < 100 nM.
For `CC(C)N(C)C(=O)c1cc(F)ccc1Oc1cncnc1N1CC2(CCN(C[C@H]3CC[C@H](NS(C)(=O)=O)CC3)CC2)C1` [Example 93, 5-fluoro-N-isopropyl-N-methyl-2-((4-(7-(((1r,4r)-4-(methylsulfonamido)cyclohexyl)methyl)-2,7-diazaspiro [3.5]nonan-2-yl)pyrimidin-5-yl)oxy)benzamide], the half-inhibitory concentration (IC50) in experiment [1] was < 100 nM. The compound further had an EC50 in experiment [2] (Homo sapiens, MV4-11, 72 h) of 100 to 1000 nM.
As for `CC(C)C(=O)N(CCO)c1cc(F)ccc1Oc1cncnc1N1CCC2(CCN(Cc3ccc4[nH]c(=O)[nH]c4c3)C2)C1` (centres unmarked) [Example 185, N-(5-fluoro-2-((4-(7-((2-oxo-2,3-dihydro-1H-benzo[d]imidazol-5-yl)methyl)-2,7-diazaspiro[4.4]nonan-2-yl)pyrimidin-5-yl)oxy)phenyl)-N-(2-hydroxyethyl)iso-butyramide], the IC50 in experiment [1] was < 100 nM. The compound also yielded an EC50 in experiment [2] (Homo sapiens, MV4-11, 72 h) of 100 to 1000 nM.
For `N#Cc1ccc(-c2cc(F)ccc2Oc2cncnc2N2CC3(CN(CC4CCOCC4)C3)C2)c(C2CC2)c1` [Example 215, 2-cyclopropyl-5′-fluoro-2′-((4-(6-((tetrahydro-2H-pyran-4-yl)methyl)-2,6-diazaspiro[3.3]heptan-2-yl)pyrimidin-5-yl)oxy)-[1,1′-biphenyl]-4-carbonitrile], in that order: < 100 nM and 100 to 1000 nM.
In the same order, the values of `Cc1cc(C#N)cc(C)c1-c1cc(F)ccc1Oc1cncnc1N1CCC2(CCN(Cc3ccc4[nH]c(=O)[nH]c4c3)C2)C1` (centres unmarked) [Example 51, 5′-fluoro-2,6-dimethyl-2′-((4-(7-((2-oxo-2,3-dihydro-1H-benzo[d]imidazol-5-yl)methyl)-2,7-diazaspiro[4.4]nonan-2-yl)pyrimidin-5-yl)oxy)-[1,1′-biphenyl]-4-carbonitrile] are < 100 nM and < 100 nM.
In the same order, the values of `COCCn1c(=O)[nH]c2cc(CN3CCC4(CCN(c5ncncc5Oc5ccc(F)cc5C(=O)N(C)C(C)C)C4)C3)ccc21` (centres unmarked) [Example 129, 5-fluoro-N-isopropyl-2-((4-(7-((1-(2-methoxyethyl)-2-oxo-2,3-dihydro-1H-benzo[d]imidazol-5-yl)methyl)-2,7-diazaspiro[4.4]nonan-2-yl)pyrimidin-5-yl)oxy)-N-methyl-benzamide] are < 100 nM and 100 to 1000 nM.
On to `CC(C)c1ncncc1-c1cc(F)ccc1Oc1cncnc1N1CC2(CC(NCC34CC(C#N)(C3)C4)C2)C1` [Example 118, 3-(((2-(5-(4-fluoro-2-(4-isopropylpyrimidin-5-yl)phenoxy)pyrimidin-4-yl)-2-azaspiro[3.3]heptan-6-yl)amino)methyl)bi-cyclo[1.1.1]pentane-1-carbonitrile], for which the IC50 in experiment [1] was < 100 nM. In addition, the EC50 in experiment [2] (Homo sapiens, MV4-11, 72 h) lay within 100 to 1000 nM.
For `NC(c1cc(F)ccc1Oc1cncnc1N1CCC2(CCN(Cc3ccc4[nH]c(=O)[nH]c4c3)C2)C1)C1CCCC1` (centres unmarked) [Example 7, 5-((7-(5-(2-(amino(cyclopentyl)methyl)-4-fluorophenoxy)pyrimidin-4-yl)-2,7-diazaspiro[4.4]nonan-2-yl)methyl)-1,3-dihydro-2H-benzo[d]imidazol-2-one], in that order: < 100 nM and 100 to 1000 nM.
In the same order, the values of `COC(C)c1ccccc1-c1cc(F)ccc1Oc1cncnc1N1CC2(CN(CC3CCOCC3)C2)C1` (centres unmarked) [Example 67, 2-(5-((5-fluoro-2′-(1-methoxyethyl)-[1,1′-biphenyl]-2-yl)oxy)pyrimidin-4-yl)-6-((tetrahydro-2H-pyran-4-yl)methyl)-2,6-diazaspiro[3.3]heptane] are < 100 nM and 100 to 1000 nM.
In the same order, the values of `COC(=O)N(c1cc(F)ccc1Oc1cncnc1N1CCC2(CCN(Cc3ccc4[nH]c(=O)[nH]c4c3)C2)C1)C(C)C` (centres unmarked) [Example 144, methyl (5-fluoro-2-((4-(7-((2-oxo-2,3-dihydro-1H-benzo[d]imidazol-5-yl)methyl)-2,7-diazaspiro[4.4]nonan-2-yl)pyrimidin-5-yl)oxy)phenyl)(iso-propyl)carbamate] are < 100 nM and < 100 nM.
Turning to `CC(C)c1ncsc1-c1cc(F)ccc1Oc1cncnc1N1CCC2(CCN(Cc3ccc4[nH]c(=O)[nH]c4c3)C2)C1` (centres unmarked) [Example 224, 5-((7-(5-(4-fluoro-2-(4-isopropylthiazol-5-yl)phenoxy)pyrimidin-4-yl)-2,7-diazaspiro[4.4]nonan-2-yl)methyl)-1,3-dihydro-2H-benzo[d]imidazol-2-one], the IC50 in experiment [1] is < 100 nM. The EC50 in experiment [2] (Homo sapiens, MV4-11, 72 h) was < 100 nM.
Take `CC(C)c1nccn1-c1cc(F)ccc1Oc1cncnc1N1CCC2(CCN(Cc3ccc4[nH]c(=O)[nH]c4c3)C2)C1` (centres unmarked) [Example 53, 5-((7-(5-(4-fluoro-2-(2-isopropyl-1H-imidazol-1-yl)phenoxy)pyrimidin-4-yl)-2,7-diazaspiro[4.4]nonan-2-yl)methyl)-1H-benzo[d]imidazol-2(3H)-one]: in experiment [1], the IC50 was < 100 nM. In experiment [2] (Homo sapiens, MV4-11, 72 h), the EC50 was < 100 nM.
On to `O=C(c1cc(F)ccc1Oc1cncnc1N1CCC2(CCN(Cc3ccc4[nH]c(=O)[nH]c4c3)C2)C1)N1CCCC1` (centres unmarked) [Example 154, 5-((7-(5-(4-fluoro-2-(pyrrolidine-1-carbonyl)phenoxy)pyrimidin-4-yl)-2,7-diazaspiro [4.4]nonan-2-yl)methyl)-1,3-dihydro-2H-benzo[d]imidazol-2-one], for which the half-inhibitory concentration (IC50) in experiment [1] was < 100 nM. In experiment [2] (Homo sapiens, MV4-11, 72 h), this compound displayed an EC50 of 100 to 1000 nM.
In the same order, the values of `Fc1ccc(Oc2cncnc2N2CC3(CN(CC4CCOCC4)C3)C2)c(OC2CCCC2)c1` [Example 168, 2-(5-(2-(cyclopentyloxy)-4-fluorophenoxy)pyrimidin-4-yl)-6-((tetrahydro-2H-pyran-4-yl)methyl)-2,6-diazaspiro[3.3]heptane] are < 100 nM and ≥ 1000 nM.
For the compound `Cn1c(-c2cc(F)ccc2Oc2cncnc2N2CCC3(CCN(Cc4ccc5[nH]c(=O)[nH]c5c4)C3)C2)c(C2CC2)ccc1=O` (racemic) [Example 29, 5-((7-(5-(2-(3-cyclopropyl-1-methyl-6-oxo-1,6-dihydropyridin-2-yl)-4-fluorophenoxy)pyrimidin-4-yl)-2,7-diazaspiro[4.4]nonan-2-yl)methyl)-1,3-dihydro-2H-benzo[d]imidazol-2-one], the IC50 in experiment [1] is < 100 nM. In addition, the EC50 in experiment [2] (Homo sapiens, MV4-11, 72 h) is < 100 nM.
As for `CC(C)n1nccc1-c1cc(F)ccc1Oc1cncnc1N1CC2(CN(CC3CCCC(F)(F)C3)C2)C1` (centres unmarked) [Example 231, 2-((3,3-difluorocyclohexyl)methyl)-6-(5-(4-fluoro-2-(1-isopropyl-1H-pyrazol-5-yl)phenoxy)pyrimidin-4-yl)-2,6-diazaspiro[3.3] heptane], the IC50 in experiment [1] is < 100 nM. Besides, in experiment [2] (Homo sapiens, MV4-11, 72 h), the EC50 lay within 100 to 1000 nM.
